Data: article PMC4290489, “Identification of multiple salicylic acid-binding proteins using two high throughput screens” (Frontiers in Plant Science, 2015)

Legend:
Type in all cases: binding
NPR1 = biological target: T1, NPR1 (Arabidopsis thaliana, UniProt P93002); assay: UV photo-crosslinking, anti-SA immunoblot; details: 50 uM 4AzSA, PBS, on ice, 254 nm UV; covalent; competed by SA
T1 construct: N-terminal His6-MBP fusion (pET-MALHT), from E. coli, Ni-NTA and gel filtration
T1 sequence (P93002 1-593): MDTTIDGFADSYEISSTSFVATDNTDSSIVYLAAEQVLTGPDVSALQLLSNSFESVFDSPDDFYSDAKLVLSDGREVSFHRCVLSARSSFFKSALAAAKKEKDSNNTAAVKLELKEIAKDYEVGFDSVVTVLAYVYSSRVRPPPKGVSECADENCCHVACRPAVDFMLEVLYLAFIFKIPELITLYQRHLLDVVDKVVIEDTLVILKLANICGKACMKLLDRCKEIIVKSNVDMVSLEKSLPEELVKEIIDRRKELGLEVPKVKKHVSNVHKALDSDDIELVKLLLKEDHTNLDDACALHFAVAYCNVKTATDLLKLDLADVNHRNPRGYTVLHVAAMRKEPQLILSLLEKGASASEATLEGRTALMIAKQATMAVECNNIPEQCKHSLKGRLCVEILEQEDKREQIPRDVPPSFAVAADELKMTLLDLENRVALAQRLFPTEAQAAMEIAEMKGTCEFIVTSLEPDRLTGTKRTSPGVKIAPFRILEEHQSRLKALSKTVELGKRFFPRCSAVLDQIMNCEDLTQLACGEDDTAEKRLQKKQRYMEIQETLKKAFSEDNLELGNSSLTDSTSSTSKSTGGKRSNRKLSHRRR

GSR2 = biological target: T2, GSR2 (Arabidopsis thaliana, UniProt Q8LCE1); assay: UV photo-crosslinking, anti-SA immunoblot; details: 50 uM 4AzSA, PBS, on ice, 254 nm UV; covalent; competed by SA
T2 construct: gene GLN1-2; N-terminal His6 (pET28a), from E. coli
T2 sequence (Q8LCE1 1-356): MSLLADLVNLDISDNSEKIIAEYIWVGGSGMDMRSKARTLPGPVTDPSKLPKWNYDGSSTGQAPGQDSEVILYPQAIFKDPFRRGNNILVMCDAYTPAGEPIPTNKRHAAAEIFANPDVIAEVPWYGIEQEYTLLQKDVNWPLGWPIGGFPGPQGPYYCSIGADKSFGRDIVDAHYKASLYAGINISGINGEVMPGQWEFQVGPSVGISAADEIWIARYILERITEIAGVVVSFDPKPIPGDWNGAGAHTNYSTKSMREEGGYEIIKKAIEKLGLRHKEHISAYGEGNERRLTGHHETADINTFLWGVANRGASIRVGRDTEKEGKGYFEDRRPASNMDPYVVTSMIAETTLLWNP

GPX2 [1] = biological target: T3, GPX2 (Arabidopsis thaliana, UniProt O04922); assay: UV photo-crosslinking, anti-SA immunoblot; details: 50 uM 4AzSA, PBS, on ice, 254 nm UV; covalent; competed by SA
T3 construct: N-terminal His6 (pET28a), from E. coli
T3 sequence (O04922 1-169): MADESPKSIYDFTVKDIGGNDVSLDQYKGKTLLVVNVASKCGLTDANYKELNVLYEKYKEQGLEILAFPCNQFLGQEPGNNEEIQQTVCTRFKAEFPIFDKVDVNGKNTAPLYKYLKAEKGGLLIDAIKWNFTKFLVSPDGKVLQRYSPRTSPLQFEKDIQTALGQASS

GPX2 [2] = biological target: T3, GPX2; assay: SPR competition on 3AESA chip; competition of 4AzSA photo-crosslinking; details: 1-5 mM SA, HBS-EP pH 7.4 (SPR); competes with 3AESA and 4AzSA
HPR2 = biological target: T4, HPR2 (Arabidopsis thaliana, UniProt Q9CA90); assay: as above; details: 1-5 mM SA, HBS-EP pH 7.4 (SPR); competes with 3AESA and 4AzSA
T4 construct: N-terminal His6 (pET28a), from E. coli
T4 sequence (Q9CA90 1-313): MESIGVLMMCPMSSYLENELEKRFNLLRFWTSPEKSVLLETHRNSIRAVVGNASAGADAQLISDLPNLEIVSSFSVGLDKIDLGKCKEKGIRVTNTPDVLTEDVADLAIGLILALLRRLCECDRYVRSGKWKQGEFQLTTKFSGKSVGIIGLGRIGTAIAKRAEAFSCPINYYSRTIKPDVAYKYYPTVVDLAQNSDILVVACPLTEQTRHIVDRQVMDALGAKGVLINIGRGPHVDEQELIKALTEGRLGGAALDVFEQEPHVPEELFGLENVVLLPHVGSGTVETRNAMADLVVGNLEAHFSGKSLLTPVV

Compound	UV photo-crosslinking, anti-SA immunoblot (NPR1)	UV photo-crosslinking, anti-SA immunoblot (GSR2)	UV photo-crosslinking, anti-SA immunoblot (GPX2 [1])	SPR competition on 3AESA chip; competition of 4AzSA photo-crosslinking (GPX2 [2])	SPR competition on 3AESA chip; competition of 4AzSA photo-crosslinking (HPR2)
[N-]=[N+]=Nc1ccc(C(=O)O)c(O)c1 [4AzSA]	NPR1 bound and was crosslinked to 4AzSA; this crosslinking was suppressed by increasing levels of SA	bound 3AESA and crosslinked to 4AzSA in an SA-inhibitable manner, indicating that they are SABPs	bound 3AESA and crosslinked to 4AzSA in an SA-inhibitable manner, indicating that they are SABPs	–	–
O=C(O)c1ccccc1O [SA]	–	–	–	bound 3AESA and crosslinked to 4AzSA in an SA-inhibitable manner, indicating that they are SABPs	bound 3AESA and crosslinked to 4AzSA in an SA-inhibitable manner, indicating that they are SABPs
